{"source": "patent US20140199433A1", "about": "“POLYDIORGANOSILOXANE-ENCAPSULATED ACTIVE INGREDIENT, METHOD FOR THE PREPARATION THEREOF, AND CHEWING GUM COMPRISING SAME” (Intercontinental Great Brands LLC, priority 2011, published 2014)", "origin": "cited, not measured here", "conditions": "20° C. and one atmosphere", "data": [{"compound": "O=C(O)CC(O)C(=O)O", "note": "(stereo not shown) [malic acid]", "values": [{"measurement": "water solubility", "result": "about 588 grams per liter"}]}]}
